Assay results from ChEMBL document CHEMBL1201862, “PubChem BioAssay data set” (2004).
Calls of active or inactive are those of the source.

Tests used:
[1] = biological target: FAD-linked sulfhydryl oxidase ALR (Homo sapiens, UniProt P55789); assay: inhibitors of human ALR sulfhydryl oxidase, dose response, biochemical, H2O2 detection, luminescence, cherry-pick (AID 493248)
[2] = intracellular Trypanosoma cruzi inhibitors in host cells – cell-based, plate reader, cherry-pick samples, set 3, dose response (AID 651818); assay type: functional;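 further: compounds incubated with infected cells for about four days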
[3] = biological target: Cytochrome P450 3A4 (Homo sapiens, UniProt P08684);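 further: CYP3A4 tested as one member of a cytochrome P450 panel screen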
[4] = biological target: Cytochrome P450 2C9 (Homo sapiens, UniProt P11712)
[5] = biological target: T1, Polyadenylate-binding protein 1 (Homo sapiens, UniProt P11940); assay: PABP1 MLLE–PAM2 binding inhibitor potency, dose response, biochemical, fluorescence polarization, FITC-PAM2 peptide (AID 602259); assay type: functional; settings: read-out: IC50_Mean
[6] = biological target: T1, Polyadenylate-binding protein 1; assay: PABP1 MLLE–PAM2 interaction inhibitors, dose response, miRNA deadenylation inhibitor project, biochemical, fluorescence polarization, Cy5-PAM2 peptide, secondary (AID 602260); assay type: functional; settings: read-out: IC50_Mean
[7] = inhibitors of intracellular T. cruzi replication, confirmation, NIH3T3 host cells, beta-gal luminescence (AID 2044); assay type: functional, cell-based;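 further: intracellular parasites grown in NIH/3T3 mouse fibroblasts as host cells; luminescent beta-galactosidase reporter signal from transgenic T. cruzi replicating inside host cells; inhibitors lower the luminescence signal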
[8] = system: Streptococcus sp. 'group A'; assay: growth inhibition of control SK(-) GAS strain, dose response, counter-screen for streptokinase expression inhibitor project, luminescence, kanamycin, BacTiterGlo, confirmation (AID 1900); assay type: functional, organism-based
[9] = system: Streptococcus; assay: Group A Streptococcus viability loss, dose response, counter-screen for streptokinase expression inhibitor project, luminescence, BacTiterGlo (AID 1915); assay type: functional, organism-based;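 further: potency for reduction of bacterial viability or growth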
[10] = biological target: T2, Streptokinase A (Streptococcus pyogenes serotype M1, UniProt P10520); assay: S. pyogenes streptokinase expression inhibitors, potency, dose response, plasminogen activation absorbance, OD405 (AID 1914); assay type: functional, Streptococcus pyogenes M1 GAS;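 further: secreted streptokinase activity via plasminogen activation per viability signal from cell pellet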
T2 sequence (P10520 whole entry): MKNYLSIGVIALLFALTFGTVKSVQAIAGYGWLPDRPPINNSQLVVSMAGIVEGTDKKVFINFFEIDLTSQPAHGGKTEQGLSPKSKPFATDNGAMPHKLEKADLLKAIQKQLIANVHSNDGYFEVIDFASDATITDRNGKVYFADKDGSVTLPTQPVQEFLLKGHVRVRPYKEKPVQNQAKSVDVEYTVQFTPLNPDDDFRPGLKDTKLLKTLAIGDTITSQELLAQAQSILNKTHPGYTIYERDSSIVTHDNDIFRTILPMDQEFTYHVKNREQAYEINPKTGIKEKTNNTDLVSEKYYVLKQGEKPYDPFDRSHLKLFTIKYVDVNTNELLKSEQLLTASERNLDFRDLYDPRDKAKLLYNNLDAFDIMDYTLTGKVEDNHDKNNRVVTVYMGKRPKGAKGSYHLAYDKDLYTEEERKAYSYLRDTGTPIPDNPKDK

[11] = system: BJ; assay: cells; assay type: functional, cell-based; settings: Homo sapiens
[12] = system: BJ; assay: cytotoxicity toward BJ-TERT-LT-ST fibroblasts, dose response, cell-based, RAS-independent, luminescence (AID 1935); assay type: functional; settings: Homo sapiens;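 further: BJ fibroblasts immortalized with TERT plus LT and ST oncogenes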
[13] = system: BJ; assay: cytotoxicity toward BJ-TERT fibroblasts, dose response, cell-based, RAS-independent, luminescence (AID 1933); assay type: functional; settings: Homo sapiens
[14] = cytotoxicity toward NIH3T3 fibroblasts, dose response, counter-screen, cell-based, ATP luminescence, mouse fibroblasts (AID 2010); assay type: functional;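 further: cells exposed to compound for about 90 hours before reading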
[15] = cytotoxicity toward DRD oncogenic fibroblasts, dose response, cell-based, non-viral oncogenic, luminescence (AID 1934); assay type: functional; settings: Homo sapiens
[16] = control 3'UTR Renilla luciferase suppression, dose response, counter-screen for Shn3 inhibitor project, cell-based, Clone20-Shn3RL, cherry-picked (AID 624133); assay type: functional
[17] = biological target: Genome polyprotein (dengue virus type 2, UniProt P29990); assay: Dengue-2 NS5 methyltransferase inhibitors, primary screen, biochemical, confirmation dose response (AID 588689); assay type: functional
[18] = biological target: T3, Histone-lysine N-methyltransferase NSD2 (Homo sapiens, UniProt O96028); assay type: biochemical
T3 sequence (O96028 whole entry): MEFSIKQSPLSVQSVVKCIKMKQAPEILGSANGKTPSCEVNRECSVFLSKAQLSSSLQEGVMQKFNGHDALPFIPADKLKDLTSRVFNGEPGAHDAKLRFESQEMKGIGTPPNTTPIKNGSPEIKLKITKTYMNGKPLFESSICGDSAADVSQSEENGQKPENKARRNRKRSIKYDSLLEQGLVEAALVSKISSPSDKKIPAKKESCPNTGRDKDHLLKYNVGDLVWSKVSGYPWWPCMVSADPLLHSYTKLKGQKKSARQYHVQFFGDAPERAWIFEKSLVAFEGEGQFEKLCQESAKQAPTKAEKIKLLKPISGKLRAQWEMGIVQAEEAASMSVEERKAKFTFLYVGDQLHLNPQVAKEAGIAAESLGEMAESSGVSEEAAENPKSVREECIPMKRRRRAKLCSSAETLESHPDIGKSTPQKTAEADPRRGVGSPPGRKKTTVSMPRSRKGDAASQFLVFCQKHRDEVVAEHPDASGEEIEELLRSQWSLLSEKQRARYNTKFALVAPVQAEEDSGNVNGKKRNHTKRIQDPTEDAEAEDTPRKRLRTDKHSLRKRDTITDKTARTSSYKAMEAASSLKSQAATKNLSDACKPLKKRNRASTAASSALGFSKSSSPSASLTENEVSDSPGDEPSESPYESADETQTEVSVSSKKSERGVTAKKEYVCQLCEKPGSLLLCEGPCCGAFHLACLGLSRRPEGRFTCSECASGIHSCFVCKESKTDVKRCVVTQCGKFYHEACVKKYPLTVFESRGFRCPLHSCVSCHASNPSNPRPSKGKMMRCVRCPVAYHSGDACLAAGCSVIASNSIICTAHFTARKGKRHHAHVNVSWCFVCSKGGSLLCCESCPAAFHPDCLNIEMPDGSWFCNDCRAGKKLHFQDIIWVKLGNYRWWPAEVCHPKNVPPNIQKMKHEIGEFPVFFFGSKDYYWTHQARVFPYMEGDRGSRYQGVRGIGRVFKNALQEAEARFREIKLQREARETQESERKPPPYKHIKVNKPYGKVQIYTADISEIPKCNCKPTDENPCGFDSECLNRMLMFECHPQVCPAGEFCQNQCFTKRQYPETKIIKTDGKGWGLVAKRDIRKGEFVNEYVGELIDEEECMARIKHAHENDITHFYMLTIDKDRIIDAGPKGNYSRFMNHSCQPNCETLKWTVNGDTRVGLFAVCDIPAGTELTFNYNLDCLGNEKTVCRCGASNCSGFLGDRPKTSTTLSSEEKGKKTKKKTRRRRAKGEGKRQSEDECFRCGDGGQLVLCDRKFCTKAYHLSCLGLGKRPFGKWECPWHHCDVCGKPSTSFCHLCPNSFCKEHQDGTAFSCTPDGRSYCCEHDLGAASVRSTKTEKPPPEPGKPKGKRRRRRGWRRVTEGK

[19] = HEp-2 cell cytotoxicity, dose response, cytotoxicity control for RSV inhibitor project, HTS (AID 2410); assay type: functional; settings: human respiratory syncytial virus

T1 sequence (P11940 whole entry): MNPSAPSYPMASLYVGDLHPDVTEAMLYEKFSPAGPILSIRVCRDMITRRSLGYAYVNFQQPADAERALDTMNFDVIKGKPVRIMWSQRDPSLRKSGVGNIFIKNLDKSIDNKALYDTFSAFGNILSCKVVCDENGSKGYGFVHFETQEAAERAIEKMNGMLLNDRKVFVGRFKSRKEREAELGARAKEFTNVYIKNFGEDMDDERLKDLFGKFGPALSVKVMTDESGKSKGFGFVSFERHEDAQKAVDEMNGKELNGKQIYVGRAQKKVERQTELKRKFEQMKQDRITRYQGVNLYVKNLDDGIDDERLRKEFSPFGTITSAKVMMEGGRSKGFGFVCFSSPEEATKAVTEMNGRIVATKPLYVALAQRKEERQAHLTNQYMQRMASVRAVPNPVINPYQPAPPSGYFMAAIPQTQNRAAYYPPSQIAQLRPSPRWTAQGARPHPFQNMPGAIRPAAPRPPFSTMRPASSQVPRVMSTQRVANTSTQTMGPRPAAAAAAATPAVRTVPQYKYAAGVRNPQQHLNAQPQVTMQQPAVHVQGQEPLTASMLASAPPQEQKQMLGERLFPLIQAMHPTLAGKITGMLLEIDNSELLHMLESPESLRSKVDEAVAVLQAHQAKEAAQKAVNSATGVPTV
Genome polyprotein, sequence (P29990 2492-3391 limits assumed): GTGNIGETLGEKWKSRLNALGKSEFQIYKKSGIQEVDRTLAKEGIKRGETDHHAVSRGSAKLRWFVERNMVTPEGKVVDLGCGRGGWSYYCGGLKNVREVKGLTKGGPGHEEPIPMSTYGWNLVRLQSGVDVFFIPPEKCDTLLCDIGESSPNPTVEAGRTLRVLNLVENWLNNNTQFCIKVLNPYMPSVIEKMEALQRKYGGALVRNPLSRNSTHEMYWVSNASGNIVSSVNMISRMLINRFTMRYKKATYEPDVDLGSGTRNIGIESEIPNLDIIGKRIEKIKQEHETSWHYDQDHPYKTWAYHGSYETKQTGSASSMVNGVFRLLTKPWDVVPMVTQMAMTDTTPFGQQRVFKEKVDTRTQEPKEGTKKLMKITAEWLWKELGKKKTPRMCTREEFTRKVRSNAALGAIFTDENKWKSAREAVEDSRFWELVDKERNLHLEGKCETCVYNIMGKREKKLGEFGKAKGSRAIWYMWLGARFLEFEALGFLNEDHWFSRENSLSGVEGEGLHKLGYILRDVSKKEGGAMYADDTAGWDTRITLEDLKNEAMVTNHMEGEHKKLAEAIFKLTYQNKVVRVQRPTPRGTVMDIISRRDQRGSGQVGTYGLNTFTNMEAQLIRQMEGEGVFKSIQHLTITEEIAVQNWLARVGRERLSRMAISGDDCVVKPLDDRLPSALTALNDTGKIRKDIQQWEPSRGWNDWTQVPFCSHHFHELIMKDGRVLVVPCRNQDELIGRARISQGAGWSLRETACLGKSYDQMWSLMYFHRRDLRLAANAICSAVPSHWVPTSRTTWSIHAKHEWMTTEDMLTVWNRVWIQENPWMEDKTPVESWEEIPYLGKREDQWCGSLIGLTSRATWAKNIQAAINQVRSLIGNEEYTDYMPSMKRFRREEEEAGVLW
FAD-linked sulfhydryl oxidase ALR, sequence (P55789 whole entry): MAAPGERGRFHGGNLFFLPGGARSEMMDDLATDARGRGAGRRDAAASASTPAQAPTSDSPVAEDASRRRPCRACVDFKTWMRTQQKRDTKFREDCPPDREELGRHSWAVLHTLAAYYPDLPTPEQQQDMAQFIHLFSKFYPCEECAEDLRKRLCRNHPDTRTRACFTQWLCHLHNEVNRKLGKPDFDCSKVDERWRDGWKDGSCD
Cytochrome P450 2C9, sequence (P11712 whole entry): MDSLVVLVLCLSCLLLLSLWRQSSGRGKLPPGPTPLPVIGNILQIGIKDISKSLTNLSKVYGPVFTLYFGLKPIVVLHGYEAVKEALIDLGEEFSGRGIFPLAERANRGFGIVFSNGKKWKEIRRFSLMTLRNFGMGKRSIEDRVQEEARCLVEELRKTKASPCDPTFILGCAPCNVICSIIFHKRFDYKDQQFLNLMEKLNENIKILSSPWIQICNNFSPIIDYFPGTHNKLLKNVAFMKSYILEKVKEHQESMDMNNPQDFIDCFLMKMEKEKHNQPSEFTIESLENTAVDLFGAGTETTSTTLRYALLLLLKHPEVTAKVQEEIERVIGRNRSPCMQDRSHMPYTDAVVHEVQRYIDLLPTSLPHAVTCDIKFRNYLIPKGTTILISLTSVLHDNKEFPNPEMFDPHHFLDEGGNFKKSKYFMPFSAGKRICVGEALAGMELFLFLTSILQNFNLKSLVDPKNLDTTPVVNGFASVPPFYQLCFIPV
Cytochrome P450 3A4, sequence (P08684 whole entry): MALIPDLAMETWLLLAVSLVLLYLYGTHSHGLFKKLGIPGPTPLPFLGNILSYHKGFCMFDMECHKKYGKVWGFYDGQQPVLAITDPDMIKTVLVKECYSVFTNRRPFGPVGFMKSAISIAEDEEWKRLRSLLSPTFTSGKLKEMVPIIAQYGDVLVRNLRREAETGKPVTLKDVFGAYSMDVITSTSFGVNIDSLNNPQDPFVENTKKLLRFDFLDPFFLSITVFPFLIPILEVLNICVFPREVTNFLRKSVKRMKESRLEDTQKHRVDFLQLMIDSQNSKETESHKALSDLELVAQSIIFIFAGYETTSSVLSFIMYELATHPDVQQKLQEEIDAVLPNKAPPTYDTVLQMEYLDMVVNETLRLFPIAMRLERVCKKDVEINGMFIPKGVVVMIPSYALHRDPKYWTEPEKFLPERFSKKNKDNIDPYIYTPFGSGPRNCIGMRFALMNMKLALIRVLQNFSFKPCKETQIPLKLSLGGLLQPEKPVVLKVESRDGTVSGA

With c1ccc2[nH]c(SCc3cn4cccnc4n3)nc2c1 the AC50 [1] was 0.194 µM (active).

For C[C@@H]1CN([C@@H](C)CO)C(=O)Cc2cc(NC(=O)Nc3cccc4ccccc34)ccc2O[C@@H]1CN(C)Cc1ccc(-c2ccccc2)cc1, the AC50 [2] was 3.22 µM (active).

With O=C(NC(=S)Nc1ccc(C(=O)N2CCOCC2)cc1)c1ccc([N+](=O)[O-])cc1 the AC50 [3] was 1.41 µM (inconclusive), the AC50 [4] was 0.891 µM (inconclusive) and the IC50 [5] was > 66 µM (inactive). For the same compound, the IC50 [6] was > 66 µM (inactive).

In the case of COC(=O)c1c(NC(=O)COc2ccc(Cl)cc2)sc2c1CC(C)(C)NC2(C)C, the EC50 [7] was 1.54 µM (active), the EC50 [8] was 11.6 µM (active) and the EC50 [9] was > 150 µM (not active). The EC50 [10] was 23.7 µM (active), the EC50 [11] was 11.7 µM (active) and the EC50 [12] was 5.75 µM (inconclusive). For the same compound, the EC50 [13] was 4.44 µM (active), the EC50 [14] was 10.4 µM (active) and the EC50 [15] was 5.85 µM (active).

With Nc1cc(O)nc(SCC(=O)Nc2cccc([N+](=O)[O-])c2)n1 the AC50 [16] was 27.7 µM (active).

For O=C(c1ccc(NC(=O)C(c2ccccc2)c2ccccc2)cc1)c1ccc(C(=O)O)c(C(=O)O)c1, the IC50 [17] was 57.6 µM (active).

For C[C@H]1CN([C@@H](C)CO)C(=O)Cc2cc(NS(=O)(=O)c3ccc(F)cc3)ccc2O[C@H]1CN(C)Cc1ccc(C(=O)Nc2ccccc2N)cc1, the AC50 [2] was 2.64 µM (active).

With COc1ccc(CN(C)C[C@H]2Oc3ccc(NC(=O)C4CCCCC4)cc3CC(=O)N([C@@H](C)CO)C[C@@H]2C)cc1 the AC50 [2] was 1.2 µM (active).

For C[C@H]1CN([C@@H](C)CO)C(=O)c2cc(NC(=O)Cc3cn(C)c4ccccc34)ccc2O[C@H]1CN(C)S(=O)(=O)c1ccc(Cl)cc1, the AC50 [2] was 2.81 µM (active).

In the case of C[C@H](CO)N1C[C@H](C)[C@@H](CN(C)Cc2ccc(C(=O)Nc3ccccc3N)cc2)Oc2c(NC(=O)C3CC3)cccc2C1=O, the AC50 [2] was 1.13 µM (active).

With O=C1Nn2c(nc3c(c2=O)CCCC3)/C1=N/Nc1cccc(C(F)(F)F)c1 the AC50 [18] was > 20 µM (inactive), the IC50 [17] was 28.7 µM (active) and the CC50 [19] was 25.1 µM (active).

In the case of COc1ccc(S(=O)(=O)Nc2cccc3c2O[C@@H](CN(C)Cc2ccc(C(=O)Nc4ccccc4N)cc2)[C@@H](C)CN([C@H](C)CO)C3=O)cc1, the AC50 [2] was 4.14 µM (active).

For C[C@@H]1CN([C@@H](C)CO)C(=O)Cc2cc(NC(=O)Nc3ccc4c(c3)OCO4)ccc2O[C@@H]1CN(C)Cc1ccc(Oc2ccccc2)cc1, the AC50 [2] was 2.77 µM (active).
